Source: patent publication US6500405B1, “Use of certain amides as probes for detection of antitubulin activity and resistance monitoring” (Dow AgroSciences LLC, priority 1996, dated 2002)
One block for each compound: values may come before it.

Columns and labels:
[1] = test system: tubulin in tobacco suspension-cultured cells; test: Whole cell binding assay, tritiated compound 1 as probe, tobacco suspension-cultured cells; settings: for Binding of radioligand (% control): 2 hours preincubation, 20 minutes with tritiated compound 1; for Effect on binding of the radioligand (in words): tobacco cells, tritiated compound 1
Experimental: The effects of various antitubulin compounds from different chemical classes on binding of compound 1 to tubulin in tobacco suspension-cultured cells is shown in this example.
Aliquots (2 ml) of suspension-cultured tobacco cells grown as described in Example 2 were added to 25 ml capacity glass vials. Each vial then received 5 μl of DMSO (control) or 5 μl of an antitubulin compound dissolved in DMSO. Vials were incubated with shaking at 27° C. for 2 hours, then 5 μl of a 100 μM solution of tritium-labeled compound 1 in DMSO was added. Vials were incubated with shaking at 27° C. for 20 minutes, then binding of the radioligand was stopped by adding 5 μl of unlabeled 40 mM compound 1. The samples were incubated with shaking at 27° C. for a further 20 minutes, then transferred to 15 ml capacity polypropylene centrifuge tubes in an ice bath. Each vial was rinsed with 2 ml ice-cold growth medium (described in example 2) and the rinse solution was then added to the rest of the sample. Following centrifugation at 4° C. for 3 minutes at 2,500 rpm the supernatant was discarded and the pelleted cells were resuspended in 4 ml of ice-cold 10% trichloroacetic acid. Samples were kept for 1 hour in an ice bath, centrifuged again, and the cells resuspended in 4 ml of ice-cold ethanol. After incubation for a further 1 hour in an ice-bath the cells were collected by filtration on glass fiber filters and washed twice with 10 ml of ice-cold ethanol. The filters with washed cells were transferred to scintillation vials, 10 ml of Hydrofluor™ scintillation fluid (National Diagnostics, Manville, N.J.) was added to each, and the samples were counted in a scintillation counter to determine the amount of bound radioactivity. The effects of different antitubulin compounds on binding of the radioligand are presented in Table 7 with the amounts of radioligand bound in the presence of each antitubulin compound expressed as a percentage of the amount of radioligand bound in the DMSO control.

[2] = target: tubulin in Phytophthora capsici (Phytophthora capsici, UniProt A4ZYP2); test: Binding assay, tritiated compound 1 as probe, germinated zoospore cysts of Phytophthora capsici; settings: 1 hour preincubation; for IC50: 20 minutes with tritiated compound 1, read-out: IC50 (concentration required to inhibit binding of the radioligand by 50%) (converted)
Sequence of tubulin in Phytophthora capsici (A4ZYP2 entry or part of it): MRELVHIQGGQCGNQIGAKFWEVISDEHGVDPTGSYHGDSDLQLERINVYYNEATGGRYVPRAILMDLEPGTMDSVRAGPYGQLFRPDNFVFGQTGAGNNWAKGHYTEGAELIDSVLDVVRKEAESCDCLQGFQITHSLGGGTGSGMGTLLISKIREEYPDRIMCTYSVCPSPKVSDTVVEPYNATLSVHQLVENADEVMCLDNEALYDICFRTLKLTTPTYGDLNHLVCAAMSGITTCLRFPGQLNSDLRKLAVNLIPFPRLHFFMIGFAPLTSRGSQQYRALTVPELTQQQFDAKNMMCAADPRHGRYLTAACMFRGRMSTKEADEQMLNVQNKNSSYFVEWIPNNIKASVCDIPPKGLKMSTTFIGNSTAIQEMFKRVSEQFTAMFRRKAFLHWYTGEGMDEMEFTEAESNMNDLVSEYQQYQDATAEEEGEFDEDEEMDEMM
Sequence of tubulin in Phytophthora capsici (A4ZYP4 entry or part of it, further chain): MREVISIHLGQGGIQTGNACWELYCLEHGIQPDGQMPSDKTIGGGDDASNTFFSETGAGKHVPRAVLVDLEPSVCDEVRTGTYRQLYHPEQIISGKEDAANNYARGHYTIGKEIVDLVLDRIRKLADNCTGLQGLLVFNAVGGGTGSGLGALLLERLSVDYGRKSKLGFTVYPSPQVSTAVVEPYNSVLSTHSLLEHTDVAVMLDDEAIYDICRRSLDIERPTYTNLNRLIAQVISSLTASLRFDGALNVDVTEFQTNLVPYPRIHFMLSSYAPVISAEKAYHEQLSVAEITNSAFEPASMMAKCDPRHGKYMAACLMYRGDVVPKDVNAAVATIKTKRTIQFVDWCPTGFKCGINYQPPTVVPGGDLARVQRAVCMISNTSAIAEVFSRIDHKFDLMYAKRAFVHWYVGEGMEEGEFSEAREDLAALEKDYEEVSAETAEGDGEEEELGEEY
Experimental: The effect of zarilamide and compounds 7, 8, 16, 19, 23 and 27 described in Table 1 on binding of compound 1 to tubulin in Phytophthora capsici is shown in this example.
Zoospores of P. capsici were prepared as follows. Petri plates, 9 cm in diameter, containing 15 ml of V-8 agar were inoculated with a mycelial plug of P. capsici and incubated for 4 days in the dark at 25° C., then placed under continuous fluorescent light for 3 days to induce sporulation. To induce zoospore release, 15 ml of sterile water was added to each plate. The plates were incubated at room temperature for 10 minutes, followed by 20 minutes at 4° C., and finally returned to room temperature for 15 minutes. The zoospore-containing fluid was then removed from each plate and adjusted to a density of 5×10^5 zoospores per ml. Assay tubes containing germinated zoospores cysts were prepared by adding 100 μl of zoospore suspension to 400 μl of asparagine-sucrose medium in 16×1.25 cm polypropylene tubes, which were then loosely capped and incubated on a gyrotary shaker at 120 rpm for 24 hours at 26° C.
Tubes containing germinated zoospore cysts then received 2.5 μl of DMSO (control) or 2.5 μl of test compound dissolved in DMSO. Each compound was tested at a series of concentrations. Tubes were incubated with shaking at 26° C. for 1 hour, then 2.5 μl of a 40 μM solution of tritium-labeled compound 1 in DMSO were added. Vials were incubated with shaking at 26° C. for 20 minutes, then binding of the radioligand was stopped by adding 1.5 ml of ice-cold unlabeled 133 μM compound 1, and transferring the tubes to an ice bath. Following centrifugation at 3,400 rpm for 3 minutes, the supernatant was discarded and the pelleted cells were resuspended in 2 ml of ice-cold 10% trichloroacetic acid. Samples were kept for 1 hour in an ice bath, centrifuged again, and the cells resuspended in 2 ml of ice-cold ethanol. After incubation for a further 1 hour in an ice-bath, an additional 4 ml of ice-cold ethanol was added to each tube and the cells were collected by filtration on glass fiber filters in a Brandell cell harvester (Brandel Biomedical Research and Development Laboratories, Inc., Gaithersburg, Md.), and washed twice with 4 ml of ice-cold ethanol. The filters with washed cells were transferred to scintillation vials and 0.1 ml of water was added followed by 1 ml of Protosol™ (Dupont NEN Research Products). The vials were incubated at 60° C. for 30 minutes and cooled to room temperature. Ten ml of Econofluor™ scintillation fluid (Dupont NEN Research Products) was added, and the samples were counted in a scintillation counter to determine the amount of bound radioactivity. IC50 values for each test compound (defined as the concentration required to inhibit binding of the radioligand by 50% as compared to controls lacking the test compound) were determined from dose-response curves and are presented in Table 9.

[3] = test system: tubulin in Phytophthora capsici mycelium; test: Whole cell binding assay, tritiated compound 1 as probe, Phytophthora capsici mycelium; settings: 1 hour preincubation, 20 min with tritiated compound 1
Experimental: The effect of paclitaxel on binding of compound 1 to tubulin in Phytophthora capsici is shown in this example.
A liquid mycelial shake culture of P. capsici in asparagine-sucrose medium was used to prepare a homogeneous suspension of fungal material for binding assays. Asparagine-sucrose medium (100 ml) was inoculated with mycelial plugs cut from cultures grown on V-8 agar, and incubated at 26° C. on a gyrotary shaker for 48 hours. The culture was homogenized in a blender, and 30 ml of the homogenate subcultured into 100 ml of fresh medium, which was then incubated at 26° C. on a gyrotary shaker for 17 hours. The resulting mycelium was recovered from the medium by centrifugation and resuspended in 1170 ml of fresh medium. Aliquots (2 ml) of this suspension were added to 25 ml capacity glass vials. Each vial then received 5 μl of DMSO (control) or 5 μl of paclitaxel dissolved in DMSO. Vials were incubated with shaking at 26° C. for 1 hour, then 5 μl of a 100 μM solution of tritium-labeled compound 1 in DMSO was added. Vials were incubated with shaking at 26° C. for 20 min, then binding of the radioligand was stopped by adding 5 μl of unlabeled 40 mM compound 1. The samples were incubated with shaking at 27° C. for a further 20 minutes, then transferred to 15 ml capacity centrifuge tubes in an ice bath. Each vial was rinsed with 2 ml ice-cold medium which was then added to the rest of the sample. Following centrifugation at 4° C. for 5 minutes at 3,400 rpm, the supernatant was discarded and the pelleted cells were resuspended in 4 ml of ice-cold 10% trichloroacetic acid. Samples were kept for 1 hour in an ice bath, centrifuged again, and the cells resuspended in 4 ml of ice-cold ethanol. After incubation for a further 2 hours in an ice-bath the cells were collected by filtration on glass fiber filters and washed twice with 10 ml of ice-cold ethanol. The filters with washed cells were transferred to scintillation vials, 10 ml of Hydrofluor™ scintillation fluid was added, and the samples were counted in a scintillation counter to determine the amount of bound radioactivity. The effect of paclitaxel at various concentrations on binding of the radioligand are presented in Table 8, with the amounts of radioligand bound in the presence of paclitaxel expressed as a percentage of the amount of radioligand bound in the DMSO control.

[4] = test system: tubulin in colon cancer cell line HCT-116; test: Whole cell binding assay, tritiated S-enantiomer of compound 2 as probe, colon cancer cell line HCT-116; settings: for Binding of radioligand (% control): HCT-116, 1 hour preincubation, 1 hour with radioligand
Experimental: Effect of antitubulin compounds on binding of the tritiated S-enantiomer of compound 2 to tubulin in a whole cell binding assay using the colon cancer cell line HCT-116 is shown by this example.
The colon cancer cell line HCT-116 (obtained from the American Type Culture Collection) was cultured in 75 cm^2 flasks containing McCoy's 5a Modified Medium with 10% heat-inactivated fetal bovine serum, 50 U/ml of penicillin G and 50 U/ml of streptomycin sulfate. A cell suspension was prepared by trypsinization of the culture, and adjusted to a density of 10^6 cells/ml by dilution into incomplete medium (medium lacking serum, penicillin G and streptomycin). Aliquots (150 μl) of cell suspension were added to wells of 96-well glass fiber filter plates (Millipore Multiscreen® plates, 1 μm glass fiber, Type B). Wells then received 30 μl of a solution of the test antitubulin compound in incomplete medium/DMSO mixture (8.5:1, v/v) or 30 μl of the incomplete medium/DMSO mixture alone (control). After mixing, the plates were incubated at 37° C. for 1 hour, then 25 μl of 0.8 μM tritium-labeled S-enantiomer of compound 2 was added to each well. After mixing, the plates were incubated at 37° C. for 1 hour, then binding of the radioligand to tubulin was stopped by adding 50 μl of 100 μM unlabeled compound 2. The fluid was removed from the plate by vacuum filtration through the glass fiber, then 100 μl of ice-cold 10% trichloroacetic acid was added to each well. The plates were incubated for 1 h at 4° C., then the fluid was removed by filtration. Ice-cold ethanol (250 μl) was added to each well, the plates incubated for 1 h at 4° C., then the ethanol was removed by filtration. Wells were washed 4 more times with 250 μl of ice-cold ethanol. After drying the plates at 37° C. for 20 min, the glass fiber filters were punched out of the wells into scintillation vials, 5 ml of scintillation fluid was added to each vial, and the samples were counted in a scintillation counter to determine the amount of bound radioactivity. The effects of different antitubulin compounds on binding of the radioligand are presented in Table 11 with the amounts of radioligand bound in the presence of each antitubulin compound expressed as a percentage of the amount of radioligand bound in the control.

SMILES: CC(C)OC(=O)Nc1cccc(Cl)c1 [Chlorpropham, chlorpropham]
Binding of radioligand (% control) ([1]; antitubulin compound 100 μM): 29.1 % control
Effect on binding of the radioligand (in words) [1]: reduced binding of the radioligand

SMILES: CCC(C)(NC(=O)c1cc(Cl)c(Cl)c(Cl)c1)C(=O)CCl (stereo not drawn) [Compound 23]
IC50 [2]: 168 nM

SMILES: CC(C)C(C)(NC(=O)c1cc(Cl)cc(Cl)c1)C(=O)CCl (stereo not drawn) [Compound 27]
IC50 [2]: 5440 nM

SMILES: CC(=O)O[C@H]1C(=O)[C@@]2(C)[C@H]([C@H](OC(=O)c3ccccc3)[C@]3(O)C[C@H](OC(=O)[C@H](O)[C@@H](NC(=O)c4ccccc4)c4ccccc4)C(C)=C1C3(C)C)[C@]1(OC(C)=O)CO[C@@H]1C[C@@H]2O [Paclitaxel, paclitaxel]
Binding of radioligand (% control) ([1]; antitubulin compound 25 μM): 50.3 % control
Effect on binding of the radioligand (in words) [1]: reduced binding of the radioligand
Binding of radioligand (% control) ([3]; 0.004 μM): 84.5 % control
Binding of radioligand (% control) ([3]; 0.02 μM): 54.6 % control
Binding of radioligand (% control) ([3]; 0.1 μM): 34.6 % control
Binding of radioligand (% control) ([3]; 0.5 μM): 23.6 % control
Binding of radioligand (% control) ([4]; 0.1 μM): 37 % control
Binding of radioligand (% control) ([4]; 1 μM): 19 % control
Binding of radioligand (% control) ([4]; 10 μM): 6 % control
Binding of radioligand (% control) ([4]; 100 μM): 4 % control
Effect on binding of the radioligand (in words) ([4]; HCT-116, tritiated S-enantiomer of compound 2): reduced binding of the radioligand

SMILES: C#CC(C)(C)NC(=O)c1cc(Cl)cc(Cl)c1 [Pronamide, pronamide]
Binding of radioligand (% control) ([1]; antitubulin compound 100 μM): 68.7 % control
Effect on binding of the radioligand (in words) [1]: reduced binding of the radioligand

SMILES: CCCN(CCC)c1c([N+](=O)[O-])cc(C(F)(F)F)cc1[N+](=O)[O-] [Trifluralin, trifluralin]
Binding of radioligand (% control) ([1]; antitubulin compound 100 μM): 129.0 % control
Effect on binding of the radioligand (in words) [1]: increased binding of the radioligand

SMILES: CCOC(C#N)NC(=O)c1ccc(Cl)cc1 (stereo not drawn) [Zarilamide, zarilamide]
IC50 (concentration required to inhibit binding of the radioligand by 50%) ([2]; 20 minutes with tritiated compound 1): 7.02 µg/mL

Continued, values first:

IC50 [2]: 2840 nM
SMILES: CCC(C)(NC(=O)c1cc(Cl)cc(C=NOC)c1)C(=O)CCl (stereo not drawn) [Compound 7]

IC50 [2]: 721 nM
SMILES: CCC(C)(NC(=O)c1cc(C)cc(Br)c1)C(=O)CCl (stereo not drawn) [Compound 8]

IC50 [2]: 3760 nM
SMILES: CCC(C)(NC(=O)c1cccc(C=NOC)c1)C(=O)CCl (stereo not drawn) [Compound 16]

IC50 [2]: 810 nM
SMILES: CC(C)(NC(=O)c1cc(Cl)cc(Cl)c1)C(=O)CCl [Compound 19]
